Measured values from patent US20040082662A1, “Polyisoprenylbenzophenone derivatives, processes for their preparation and use thereof” (Aventis Pharma Deutschland Gmbh, priority 2002, published 2004).

Experiments:
Staphylococcus aureus = assay: Test of the antibacterial activity (agar plate, antibiotic test sheets, inhibition halo); format: cell-based; conditions: 16 hours at 37° C.
Procedure: For the test of the antibacterial action, agar plates containing 2 ml of Staphylococcus aureus sowing in 200 ml of agar solution were firstly prepared. Makandechamone was applied in a 1 mg/ml solution to antibiotic test sheets (Schleicher and Schüll) having a diameter of 6 mm and placed on the agar plate. The inoculated Staphylococcus plates were incubated for 16 hours at 37° C. Inhibition halos having the following diameters (mm) were then observed: […]

[1] = Solubility (physicochemical properties)
Description: (§1) Stable in neutral and acidic medium.

[2] = Stability (physicochemical properties); conditions: neutral and acidic medium
Description: as §1

[3] = test system: certain bee-pathogenic bacteria; conditions: cited from earlier work
HIV = conditions: cited from earlier work

Work on `C=C1CC(C)(C)CCC1CC12CC(CC=C(C)C)C(C)(C)C(C(=O)c3ccccc3)(C1=O)C(O)=C(CC=C(C)C)C2=O` (stereo not drawn) [makandechamone] yielded an Inhibition halo size (Staphylococcus aureus; 10 μl of 1 mg/ml solution on 6 mm test sheet) of 7 mm, an Inhibition halo size (Staphylococcus aureus; 20 μl of 1 mg/ml solution on 6 mm test sheet) of 12 mm and an Inhibition halo size (Staphylococcus aureus; 40 μl of 1 mg/ml solution on 6 mm test sheet) of 14 mm. For the same compound, the “Solubility in medium polar and polar organic solvents” value ([1]; medium polar and polar organic solvents) was “soluble”, the Solubility in water ([1]; water) was “not very soluble” and the Stability [2] was “Stable”.

In the case of chamone I, the “Activity against certain bee-pathogenic bacteria” value [3] is given as “active”.

In the case of guttiferone F, the HIV-inhibitory action (HIV) is listed as “HIV-inhibitory action”.

In the case of nemorosome II, the “Activity against certain bee-pathogenic bacteria” value [3] is given as “active”.
